# Source: patent US20200055835A1, “USE OF TRICYCLIC SESQUITERPENE LACTONES IN THE TREATMENT OF OBESITY AND RELATED DISEASES AND NON-THERAPEUTIC TREATABLE CONDITIONS” (NEEM BIOTECH LTD., priority 2010, published 2020)
# What was measured:
# [1] = olive oil-loaded mice, 6 hours; cited from earlier work
# [2] = Feeding experiment: body weight and body fat (DEXA) in rats; format: in vivo, Sprague-Dawley (SD) rats; conditions: high fat diet (34% fat), 0.1% by weight in chow, 8 weeks, male SD rats
# Experimental: For the present experiments, the compound to be tested is added to the feed of the individuals. This is beneficial against enforcement because it allows a validation of the acceptance of the test compounds. The experiments are performed with negative control and are correlated to a commercial slimming product.
# Cynaropicrin is tested using six weeks old, none-adult, male Sprague-Dawley (SD) rats (Charles Rivers, Sulzfeld, Germany). Cynaropicrin is mixed with the chow (ssniff Spezial-diäten GmbH, Soest, Germany) to a final concentration of 0.1% by weight and fed for 8 weeks in two different treatment regimes: • Balanced diet (standardised to 4% fat) • High fat diet (standardised to 34% fat)
# Controls obtain the same diet without Cynaropicrin or other anti-obesity additives.
# Body weight is studied and analysed every week, body fat and mineral bone density are analysed by DEXA (scanner, see Example 3) in week 0, in week 4 and at the last day of the study in week 8. Furthermore, the white body fat weight is determined after removal of the tissue at the end of the feeding study in week 8. For the DEXA measurements the same apparatuses and methodology are used as described in example 3.
# The GE Lunar Piximus2 DEXA scanner (GE Healthcare, Munich, Germany) gives accurate information on differences in body composition in mice (see Nagy, T R and Clair, A-L. Precision and accuracy of dual-energy X-ray absorptiometry for determining in vivo body composition in mice. Obesity Res. 2000; 8:392-398; Brommage Am J Physiol Endocrinol Metab 285: E454-E459, 2003). Validation and calibration of DEXA body composition in mice; Sarah L. Johnston, Wendy L. Peacock, Lynn M. Bell, Michel Lonchampt, and John R. Speakman, Obesity Research 2005 13 (9), 1558). One scanning procedure takes up to five minutes per individual and provides data on fat mass, lean mass, bone mineral content and bone mineral density. The method is validated against Soxhlet (SOX) fat extraction in mice and a strong correlation (r 2>0.95) between fatDEXA and fatSOX is determined (published information).
# As a control experiment within the high fat diet, epigallocatechin-3-gallate (EGCG, Chengdu Purification Technology Development Co. Ltd, Chengdu, China) in pure form is used as the standard for comparison of potency and differentiation as well as benchmark against competing compounds or formulations against obesity. […] EGCG is marketed as a functional food ingredient claiming an anti-obesity effect (Wolfram, S et al. Mol Nutr Food Res 2006; 50(2):176-87; Wolfram, S et al. Ann Nutr Metab 2005; 49(1):54-6, Klaus, S et al. Int J Obes 2005; 29(6):615-23; Hill, A M et al. J Am Coil Nutr. 2007; 26(4):396S-402S). The final concentration of EGCG used is 0.1%, too.
# [3] = Pathological parameters: macroscopic organ inspection and kidney histo-pathology; format: in vivo; conditions: rat feeding study
# Experimental: Main organs are analysed macroscopically for safety reasons and to investigate the effects of the different diets on these organs (e.g. induction of […] (“fatty”) livers etc.). After organ removal, macroscopic inspections of e.g. heart, kidneys; GI tract, spleen, liver are performed.
# [4] = Clinical blood chemistry of the rat study; format: in vivo; conditions: rats under high fat (HF) diet
# Experimental: The following parameters are involved in energy metabolism and thereby related to the metabolic syndrome. They are determined from blood samples taken in week 1; 4; and 8 of the rat study: Total cholesterol levels; HDL, LDL, TG (triglycerides), and glucose. Furthermore, the activity of liver enzymes such as ALT (alanin-aminotransferase), AST (aspartat-aminotransferase), and AP (alkaline phosphatase), as well as the concentration of Bilirubin, Albumin, Creatin Kinase, and electrolytes (Na+; K+; Ca++; Cl−) are determined as safety markers to exclude any toxic effects such as e.g. liver damage.
# Blood samples are taken from the sublingual vein and collected in Li-Heparin coated vials. The blood samples are stored on ice for a short period of time before it is centrifuged for 15 minutes at 8° C. and 3500 rpm. The supernatant plasma is transferred in a reaction tube and stored at −80° C. until clinical chemistry measurements are performed. All measurements are conducted using an Olympus AU 400 at the gene centre of the LMU Munich, working group of Prof. Wolf. Statistical calculations are performed with Statistika (Statsoft (Europe) GmbH, Hamburg, Germany) und Sigma Stat (Jandel Scientific, San Raphael, Calif., USA).
# [5] = system: Mealworm (Tenebrio molitor); conditions: cited from earlier work
compound,measurement,setting,value
"C=C(C)C(=O)O[C@H]1CC(=C)[C@@H]2C[C@H](O)C(=C)[C@@H]2[C@H]2OC(=O)C(=C)[C@@H]21 [aguerine B, reference compound]","serum TG, long term",[1],increase
"C=C(CO)C(=O)OC1CC(=C)C2CC(O)C(=C)C2C2OC(=O)C(=C)C12 (centres unmarked) [Cynaropicrin, (8-hydroxy-3,6,9-trimethylidene-2-oxo-3a,4,5,6a,7,8,9a, 9b-octahydroazuleno[4,5-b]furan-4-yl) 2-(hydroxymethyl)prop-2-enoate]",body fat accumulation (DEXA) in comparison to the control groups,[2],reduced body fat accumulation
same,body weight accumulation in comparison to the control groups,[2],reduced body weight accumulation
same,"serum TG, long term",[1],increase
same,"macroscopic inspection of main organs (heart, kidneys, GI tract, spleen, liver)",[3]; after organ removal,no significant alterations
same,histo-pathological analysis of the kidneys (morphology and function),[3],does not result in any observation of an adverse effect
same,total cholesterol:HDL/LDL ratio compared to the control group (HF only),[4],improved
"C=C1CC(O)C2C(=C)C(=O)OC2C2C(C)C(=O)CC12 (centres unmarked) [Grossheimin, 4-hydroxy-9-methyl-3,6-dimethylene-3a,4,5,6a,7,9,9a,9b-octahydroazuleno[5,4-d]furan-2,8-dione]",absorption of digested food constituents,[5],little decrease
same,antifeeding activity,[5],no anti-feeding
same,efficiency in digesting,[5],little decrease
same,larval growth,[5],inhibition of larval growth
same,lipid levels in blood,[5],no effect
"C=C1C(=O)O[C@H]2[C@H]1[C@@H](OC(=O)[C@]1(C)CO1)CC(=C)[C@@H]1C[C@H](O)[C@]3(CO3)[C@H]21 [repin, reference compound]",antifeeding activity,[5],antifeeding activity
same,larval growth,[5],inhibition of larval growth
same,lipid levels in blood,[5],no effect
"epigallocatechin-3-gallate [EGCG, reference compound]",body fat accumulation (DEXA) in comparison to the control groups,[2],No effects
same,body weight accumulation in comparison to the control groups,[2],No effects
